Holding throughout (type): biochemical
The target in one assay is T1, Btk (Homo sapiens, UniProt Q06187).
T1 construct: purified from insect cells as a full-length construct containing a N-terminal 6X-His tag; His6 (N); made in house; host or cells: insect cells (Method C)
As to the kind of experiment: Btk in vitro inhibitory activity (one of Method A TR-FRET, Method B electrophoretic mobility shift, Method C radiometric filter binding). A digest of the protocol:
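Three alternative formats were used. A radiometric filter-binding read used 8 nM full-length His-BTK with 0.2 mg/mL poly(Glu-Tyr) 4:1 (C); microfluidic separation of 1 μM FAM-peptide by 1 nM BTK gave IC50 from 12-point curves (B); TR-FRET at Km ATP, 0.5 nM Btk, gave Ki(app)-derived IC50 (A).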

The next assay has as its target T2, panel of kinases (Homo sapiens, UniProt P51813).
T2 sequence (P51813 1-675): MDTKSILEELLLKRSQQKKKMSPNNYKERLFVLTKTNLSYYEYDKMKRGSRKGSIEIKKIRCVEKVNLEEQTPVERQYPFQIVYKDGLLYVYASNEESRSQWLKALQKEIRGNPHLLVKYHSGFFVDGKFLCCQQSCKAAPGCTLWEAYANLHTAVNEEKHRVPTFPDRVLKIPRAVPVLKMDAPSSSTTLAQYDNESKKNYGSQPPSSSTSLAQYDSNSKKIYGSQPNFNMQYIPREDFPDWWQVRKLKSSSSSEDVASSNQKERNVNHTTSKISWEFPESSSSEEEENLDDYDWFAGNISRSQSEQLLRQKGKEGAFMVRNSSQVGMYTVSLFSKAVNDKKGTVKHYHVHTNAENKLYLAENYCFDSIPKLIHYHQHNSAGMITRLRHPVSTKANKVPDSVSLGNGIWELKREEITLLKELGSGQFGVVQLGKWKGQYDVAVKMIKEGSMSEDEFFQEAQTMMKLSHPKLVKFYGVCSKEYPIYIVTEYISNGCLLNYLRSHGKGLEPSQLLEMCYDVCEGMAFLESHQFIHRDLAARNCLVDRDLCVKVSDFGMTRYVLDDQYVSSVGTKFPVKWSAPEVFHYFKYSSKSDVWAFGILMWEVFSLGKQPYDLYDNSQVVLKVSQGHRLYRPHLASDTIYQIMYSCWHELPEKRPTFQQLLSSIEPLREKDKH
Nature of the assay: Inhibition of a panel of kinases (in vitro HotSpot kinase assay, 33P-ATP, 1 μM ATP), other kinases. The settings on record: BMX wild-type, read-out: BMX-WT IC50. The procedure, abridged: (§1)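 At 1 μM ATP spiked with 33P-ATP, substrate phosphorylation by the purified enzymes gives the extent of inhibition.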

The next assay addresses T3, TEC (Homo sapiens, UniProt P42680).
T3 sequence (P42680 1-631): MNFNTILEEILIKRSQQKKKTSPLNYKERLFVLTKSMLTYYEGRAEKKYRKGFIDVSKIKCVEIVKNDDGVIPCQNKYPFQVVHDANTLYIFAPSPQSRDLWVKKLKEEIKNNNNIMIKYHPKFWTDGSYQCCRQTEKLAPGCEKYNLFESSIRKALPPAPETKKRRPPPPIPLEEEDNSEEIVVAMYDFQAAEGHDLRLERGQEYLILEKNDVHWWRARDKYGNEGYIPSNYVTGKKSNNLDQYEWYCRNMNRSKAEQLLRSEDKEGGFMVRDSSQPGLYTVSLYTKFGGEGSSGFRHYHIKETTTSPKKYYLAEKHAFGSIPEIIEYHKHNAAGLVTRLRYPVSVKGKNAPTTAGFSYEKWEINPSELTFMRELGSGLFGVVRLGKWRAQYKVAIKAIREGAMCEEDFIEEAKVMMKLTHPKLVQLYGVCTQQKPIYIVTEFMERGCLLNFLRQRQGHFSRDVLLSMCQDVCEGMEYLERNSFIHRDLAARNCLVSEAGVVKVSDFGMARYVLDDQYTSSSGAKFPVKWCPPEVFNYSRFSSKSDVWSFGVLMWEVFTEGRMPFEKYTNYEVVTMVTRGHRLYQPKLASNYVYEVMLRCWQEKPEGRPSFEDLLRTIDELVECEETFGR
Nature of the assay: Inhibition of a panel of kinases (in vitro HotSpot kinase assay, 33P-ATP, 1 μM ATP). The settings on record: for pIC50: HotSpot kinase assay, 1 μM ATP; for TEC/Btk: ratio of TEC IC50 to Btk IC50 (selectivity). A digest of the protocol: as §1

Setting [1] is: wild-type Btk, read-out: Btk-WT IC50.
Where [2] appears, read: method is one of A, B or C, not stated which, read-out: IC50 values against Btk.

Structures are written as SMILES. pIC50: −log10 of the molar value. Read-outs that look alike come from different tables or passages of the source.

Drawing on patent US20180194762A1 (Pharmacyclics LLC, priority 2017, published 2018), this text covers IC50 and TEC/Btk for 14 molecules.

As usually defined, the pIC50 is the negative decadic logarithm of the IC50, by convention in mol/L.

T1 sequence (Q06187 whole entry): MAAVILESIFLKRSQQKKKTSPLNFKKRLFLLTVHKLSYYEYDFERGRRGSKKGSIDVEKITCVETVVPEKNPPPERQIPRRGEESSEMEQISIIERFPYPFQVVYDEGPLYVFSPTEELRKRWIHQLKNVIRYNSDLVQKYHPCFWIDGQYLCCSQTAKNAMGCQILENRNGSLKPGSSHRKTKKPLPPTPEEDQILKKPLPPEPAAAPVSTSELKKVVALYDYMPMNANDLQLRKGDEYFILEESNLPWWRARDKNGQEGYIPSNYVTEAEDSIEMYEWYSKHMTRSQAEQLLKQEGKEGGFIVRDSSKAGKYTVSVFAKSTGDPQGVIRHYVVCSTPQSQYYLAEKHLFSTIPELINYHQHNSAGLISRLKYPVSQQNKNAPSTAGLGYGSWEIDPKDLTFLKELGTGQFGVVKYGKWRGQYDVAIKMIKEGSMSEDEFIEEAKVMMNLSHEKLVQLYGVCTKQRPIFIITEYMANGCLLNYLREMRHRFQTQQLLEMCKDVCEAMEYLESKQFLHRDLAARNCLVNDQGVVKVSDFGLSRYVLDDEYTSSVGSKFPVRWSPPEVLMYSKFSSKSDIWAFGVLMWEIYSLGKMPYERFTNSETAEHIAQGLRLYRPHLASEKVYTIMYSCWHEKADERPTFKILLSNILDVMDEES

With `CC(=O)NC1CCN(c2n[nH]c3nccc(-c4ccc([C@@H](C)NC(=O)c5cc(C(C)(C)O)on5)cc4)c23)CC1` [Example 365, N-[(1R)-1-{4-[3-(4-acetamidopiperidin-1-yl)-1H-pyrazolo[3,4-b]pyridin-4-yl]phenyl}ethyl]-5-(2-hydroxypropan-2-yl)-1,2-oxazole-3-carboxamide], the pIC50 is 7.34 at Btk (setting [1]), 5.52 at panel of kinases and 5.21 against TEC.

`CNC1CCN(c2n[nH]c3nccc(-c4ccc(CN(C)C(=O)c5nc(C(C)(C)C)no5)c(F)c4)c23)C1` (stereo not drawn) [Example 337, 3-tert-butyl-N-[(2-fluoro-4-{3-[3-(methylamino)pyrrolidin-1-yl]-1H-pyrazolo[3,4-b]pyridin-4-yl}phenyl)methyl]-N-methyl-1,2,4-oxadiazole-5-carboxamide]: the pIC50 was 8.63 on Btk (setting [1]), 5.28 at panel of kinases and 5.10 at TEC.

As to `C=CC(=O)N[C@@H]1CC[C@H](C)N(c2n[nH]c3nccc(-c4ccc(CNC(=O)c5cc(C(C)(C)C)on5)c(F)c4)c23)C1` [Example 323, 5-tert-butyl-N-{[2-fluoro-4-(3-{(2S,5R)-2-methyl-5-[(prop-2-enoyl)amino]piperidin-1-yl}-1H-pyrazolo[3,4-b]pyridin-4-yl)phenyl]methyl}-1,2-oxazole-3-carboxamide], the pIC50 was 8.13 on Btk (setting [1]), 6.35 on panel of kinases and 6.13 against TEC.

In the case of `C=CC(=O)N(C)[C@@H]1CCN(c2n[nH]c3nccc(-c4ccc(CN(C)C(=O)c5nc(C(C)(C)C)no5)c(F)c4)c23)C1` [Example 338, 3-tert-butyl-N-{[2-fluoro-4-(3-{(3R)-3-[methyl(prop-2-enoyl)amino]pyrrolidin-1-yl}-1H-pyrazolo[3,4-b]pyridin-4-yl)phenyl]methyl}-N-methyl-1,2,4-oxadiazole-5-carboxamide], the pIC50 at Btk (setting [1]) was 10.17; at panel of kinases, 7.55; on TEC it was 7.64.

For `C=CC(=O)N1CCC[C@@H](Nc2n[nH]c3nccc(-c4ccc(CNC(=O)c5noc(C(C)(C)C)n5)c(F)c4)c23)C1` [Example 85, 5-tert-butyl-N-{[2-fluoro-4-(3-{[(3R)-1-(prop-2-enoyl)piperidin-3-yl]amino}-1H-pyrazolo[3,4-b]pyridin-4-yl)phenyl]methyl}-1,2,4-oxadiazole-3-carboxamide], the pIC50 on Btk (setting [2]) is > 8.00; on Btk (setting [1]), 9.72; at panel of kinases, 6.94; on TEC it was 6.96. On TEC, the TEC/Btk was found to be 579.

On to `C=CC(=O)N[C@@H]1CCN(c2n[nH]c3nccc(-c4ccc(CNC(=O)c5nc(C(C)(C)C)no5)c(F)c4)c23)C1` [Example 331, 3-tert-butyl-N-{[2-fluoro-4-(3-{(3R)-3-[(prop-2-enoyl)amino]pyrrolidin-1-yl}-1H-pyrazolo[3,4-b]pyridin-4-yl)phenyl]methyl}-1,2,4-oxadiazole-5-carboxamide], for which the figures for the pIC50 at Btk (setting [1]), on panel of kinases and against TEC were 10.45, 7.48 and 7.52, respectively.

Regarding `C=CC(=O)N1CC[C@@H](Nc2n[nH]c3nccc(-c4ccnc(N5CCn6c(cc7c6CC(C)(C)C7)C5=O)c4C=O)c23)C1` [Example 286, (R)-2-(7,7-dimethyl-1-oxo-1,3,4,6,7,8-hexahydro-2H-cyclopenta[4,5]pyrrolo[1,2-a]pyrazin-2-yl)-4-(3-{[1-(prop-2-enoyl)pyrrolidin-3-yl]amino}-1H-pyrazolo[3,4-b]pyridin-4-yl)pyridine-3-carbaldehyde], the pIC50 was 6.32 at Btk (setting [1]), 5.82 at panel of kinases and 5.74 at TEC.

For `CC(C)(C)c1nc(C(=O)NCc2ccc(-c3ccnc4[nH]nc(N[C@@H]5CCNC5)c34)cc2)no1` [Example 174, 5-tert-butyl-N-{[4-(3-{[(3R)-pyrrolidin-3-yl]amino}-1H-pyrazolo[3,4-b]pyridin-4-yl)phenyl]methyl}-1,2,4-oxadiazole-3-carboxamide], the negative-log IC50 (pIC50) at Btk (setting [1]) is 7.49; at panel of kinases, < 5.00; on TEC, < 5.00. The TEC/Btk at TEC is >100.

`C[C@H]1CC[C@@H](Nc2n[nH]c3nccc(-c4ccc(CNC(=O)c5noc(C(C)(C)C)n5)cc4)c23)CN1C(=O)N(C)C` [Example 256, (2S,5R)-5-{[4-(4-{[(5-tert-butyl-1,2,4-oxadiazole-3-carbonyl)amino]methyl}phenyl)-1H-pyrazolo[3,4-b]pyridin-3-yl]amino}-N,N,2-trimethylpiperidine-1-carboxamide]: the figures for the pIC50 on Btk (setting [1]), at panel of kinases and against TEC were 8.08, 5.26 and 5.44, respectively. Also, the TEC/Btk on TEC turned out to be 430.

With `C=CC(=O)N[C@@H]1CCN(c2n[nH]c3nccc(-c4ccc(CNC(=O)c5ccc(C(C)(C)C)cc5)c(F)c4)c23)C1` [Example 101, 4-tert-butyl-N-[(2-fluoro-4-{3-[(3R)-3-(prop-2-enamido)pyrrolidin-1-yl]-1H-pyrazolo[3,4-b]pyridin-4-yl}phenyl)methyl]benzamide], the negative logarithm of the IC50 (pIC50) at Btk (setting [2]) was > 8.00; on Btk (setting [1]) it was 9.66; at panel of kinases, 6.91; against TEC, 7.02. In addition, the TEC/Btk at TEC is given as 434.

In the case of `C[C@@H](NC(=O)c1nc(C(C)(C)C)no1)c1ccc(-c2ccnc3[nH]nc(N4CCCCC4)c23)cc1` [Example 384, 3-tert-butyl-N-[(1R)-1-{4-[3-(piperidin-1-yl)-1H-pyrazolo[3,4-b]pyridin-4-yl]phenyl}ethyl]-1,2,4-oxadiazole-5-carboxamide], the pIC50 was 9.18 on Btk (setting [1]), 5.69 on panel of kinases and 5.52 at TEC.

On to `CN(C)C(=O)N1CC[C@H](Nc2n[nH]c3nccc(-c4ccc(CNC(=O)c5noc(C(C)(C)C)n5)c(F)c4)c23)C1` [Example 113, 5-tert-butyl-N-{[4-(3-{[(3S)-1-(dimethylcarbamoyl)pyrrolidin-3-yl]amino}-1H-pyrazolo[3,4-b]pyridin-4-yl)-2-fluorophenyl]methyl}-1,2,4-oxadiazole-3-carboxamide], for which the pIC50 is 7.98 on Btk (setting [1]), 6.55 on panel of kinases and 5.77 against TEC. Moreover, the TEC/Btk on TEC was found to be 164.

`CC(C)c1cc(C(=O)NCc2ccc(-c3ccnc4[nH]nc(N5CC[C@@H](N)C5)c34)cc2F)on1` [Example 182, N-[(4-{3-[(3R)-3-aminopyrrolidin-1-yl]-1H-pyrazolo[3,4-b]pyridin-4-yl}-2-fluorophenyl)methyl]-3-(propan-2-yl)-1,2-oxazole-5-carboxamide]: the pIC50 is 7.84 on Btk (setting [1]), 5.88 on panel of kinases and 5.58 on TEC. Also, the TEC/Btk at TEC is listed as 180.

In the case of `CC(=O)N1CCC[C@H](Nc2n[nH]c3nccc(-c4ccc(CNC(=O)c5nc(C(C)(C)C)no5)c(F)c4)c23)C1` [Example 168, N-{[4-(3-{[(3S)-1-acetylpiperidin-3-yl]amino}-1H-pyrazolo[3,4-b]pyridin-4-yl)-2-fluorophenyl]methyl}-3-tert-butyl-1,2,4-oxadiazole-5-carboxamide], the negative-log IC50 (pIC50) on Btk (setting [1]) is 7.39; on panel of kinases, < 5.00; at TEC it was < 5.00. For the same molecule, the TEC/Btk at TEC was >100.
